The target of one experiment is T1, CCKB receptor (Mus musculus, UniProt P56481).
T1 construct: The cortex was dissected, weighed and homogenised in 40 ml ice-cold buffer; from tissue; host or cells: cerebral cortex membranes of male CD1 mice (Charles River)
T1 sequence (P56481 1-453): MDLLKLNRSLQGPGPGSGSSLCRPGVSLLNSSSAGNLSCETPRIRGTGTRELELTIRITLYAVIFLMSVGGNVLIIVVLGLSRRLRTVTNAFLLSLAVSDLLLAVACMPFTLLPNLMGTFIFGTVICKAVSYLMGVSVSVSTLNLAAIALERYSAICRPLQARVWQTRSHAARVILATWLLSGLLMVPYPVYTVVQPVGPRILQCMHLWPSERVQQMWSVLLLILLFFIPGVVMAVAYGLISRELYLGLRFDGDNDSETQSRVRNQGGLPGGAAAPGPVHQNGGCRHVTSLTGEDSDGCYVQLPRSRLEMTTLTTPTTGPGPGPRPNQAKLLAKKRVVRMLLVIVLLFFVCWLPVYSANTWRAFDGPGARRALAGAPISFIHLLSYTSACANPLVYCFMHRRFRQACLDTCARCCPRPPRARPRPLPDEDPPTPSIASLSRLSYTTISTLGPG
The experiment in a line: radioligand binding assay at the CCKB receptor in mouse cortical membranes ([125I]-CCK8S). Particulars: 150 min at 21±3°; for Ki: read-out: CCKB pKi (converted). As to the method:
The compounds of the examples were tested for binding at the CCKB receptor in mouse cortical membranes by means of a radioligand binding assay. The procedure was as follows:
The whole brains from male mice (CD1 22-25 g; Charles River) were removed and placed in ice-cold buffer (pH7.2 @ 21±3 °) of the following composition (mM); 10 HEPES, 130 NaCl, 4.7 KCl, 5 MgCl2, 1 EDTA and containing 0.25 g.1^-1 bacitracin. The cortex was dissected, weighed and homogenised in 40 ml ice-cold buffer using a Teflon-in-glass homogeniser. The homogenate was centrifuged at 39,800 g for 20 min at @ 4°, the supernatant discarded and the pellet resuspended by homogenisation in fresh buffer. The homogenate was recentrifuged (39,800 g; 20 min @4°) and the final pellet was resuspended in HEPES buffer to give a tissue concentration of 2 mg.ml^-1 (original wet weight).
The membranes ([…]) were incubated for 150 min at 21±3° in a final volume of 0.5 ml with HEPES buffer containing [^125 I]-CCK8S (0.05 ml; 200 pM NEN 2200 Ci.mmol^-1) and competing compound. Total and non-specific binding of [^125 I]-CCK8S were defined using 0.05 ml of buffer and 0.05 ml of […] L-365,260, respectively. The assay was terminated by rapid filtration through pre-soaked Whatman GF/B filters using a Brandell Cell harvester. The filters were washed (3×3 ml) with ice-cold 50 mM Tris-HC1 (pH7.4 @ 4° C.) and bound radioactivity determined by counting (1 min.) in a gamma-counter.

The target in another experiment is T2, gastrin receptors (Rattus norvegicus, UniProt P30553).
T2 construct: from tissue; host or cells: isolated perfused whole stomach of immature rats (33-50 g, ca. 21 days old)
T2 sequence (P30553 1-452): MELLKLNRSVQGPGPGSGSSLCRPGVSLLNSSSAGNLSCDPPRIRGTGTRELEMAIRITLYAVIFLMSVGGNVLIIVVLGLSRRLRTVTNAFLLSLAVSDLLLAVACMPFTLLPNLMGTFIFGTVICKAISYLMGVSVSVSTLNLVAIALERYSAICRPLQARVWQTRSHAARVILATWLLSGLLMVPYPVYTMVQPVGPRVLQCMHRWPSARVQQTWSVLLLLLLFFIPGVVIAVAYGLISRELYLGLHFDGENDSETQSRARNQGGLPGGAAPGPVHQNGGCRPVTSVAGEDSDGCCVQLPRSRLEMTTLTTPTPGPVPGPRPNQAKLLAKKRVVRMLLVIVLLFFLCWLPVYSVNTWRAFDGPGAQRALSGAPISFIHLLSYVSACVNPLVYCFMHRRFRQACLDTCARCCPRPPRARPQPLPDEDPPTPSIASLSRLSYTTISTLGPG
The experiment in a line: gastrin antagonist activity in an immature rat stomach assay (pentagastrin-stimulated acid secretion). As to conditions: isolated immature rat stomach, cumulative pentagastrin dose-response curves; for Kb: read-out: Gastrin pKB (converted). As to the method:
The compounds of the examples were also tested for gastrin antagonist activity in an immature rat stomach assay. The procedure was as follows:
The oesophagus of immature rats (33-50 g, ca. 21 days old) was ligated at the level of the cardiac sphincter and the duodenal sphincter was cannulated. The stomach was excised and flushed with ca. 1 ml of unbuffered physiological saline solution. The fundus was punctured and cannulated. A further 4-5 ml of unbuffered solution was flushed through the stomach to ensure the preparation was not leaking. The stomach was lowered into a jacketed organ bath containing 40 ml of buffered solution containing 3×10^-8 M 5-methyl-furmethide, maintained at 37° and gassed vigorously with 95% O2 /5% CO2. The stomach was continuously perfused at a rate of 1 ml min^-1 with unbuffered solution gassed with 100% O2 with the perfusate passing over an internally referenced pH-electrode fixed 12 cm above the stomach.
After 120 min of stabilisation the drugs were added directly to the serosal solution in the organ bath and after a further 60 min cumulative pentagastrin dose-response curves were started. Changes in acid secretion were monitored and the curves analysed according to Black et. al., Br. J. Pharmacol., 1985, 86, 581.

For the compound `O=C(NCC12CC3CC(CC(C3)C1)C2)C1C2C=CC(c3ccccc32)C1C(=O)N1CCC[C@@H]1C(=O)O` (stereo partly drawn) [Example 10, endo-cis-7-(2-R-carboxy-pyrrolidinocarbonyl)-8-(1-adamantylmethylaminocarbonyl)-5,6-benzobicyclo[2.2.2]oct-2-ene], the Ki at CCKB receptor was 2 µM. Further, the Kb on gastrin receptors was 1.58 µM.

In the case of `COC(=O)[C@H](C)NC(=O)C1C2C(C)=C(C)C(c3ccccc32)C1C(=O)NCC12CC3CC(CC(C3)C1)C2` (stereo partly drawn) [Example 19, exo-cis-7-(1-S-Methoxycarbonyl-ethylaminocarbonyl)-8-(1-adamantylmethylaminocarbonyl)-2,3-dimethyl-5,6-benzobicyclo[2.2.2]oct-2-ene], the Ki at CCKB receptor is 0.398 µM. Further, the Kb on gastrin receptors was 1.58 µM.

Regarding `COC(=O)[C@H](C)NC(=O)C1C2CCC(c3ccccc32)C1C(=O)NCC12CC3CC(CC(C3)C1)C2` (stereo partly drawn) [Example 22, endo-cis-7-(1-S-Methoxycarbonyl-ethylaminocarbonyl)-8-(1-adamantylmethylaminocarbonyl)-2,3-benzobicyclo[2.2.2]octane], the Ki at CCKB receptor is 0.631 µM. The Kb on gastrin receptors is 0.2 µM.

As for `COC(=O)[C@H](C)NC(=O)C1C2CCC(c3ccccc32)C1C(=O)NCC12CC3CC(CC(C3)C1)C2` (stereo partly drawn) [Example 23, exo-cis-7-(1-S-Methoxycarbonyl-ethylaminocarbonyl)-8-(1-adamantylmethylaminocarbonyl)-2,3-benzobicyclo[2.2.2]octane], the Ki at CCKB receptor was 0.398 µM. The Kb on gastrin receptors was 0.316 µM.

As to `COC(=O)[C@H](C)NC(=O)C1C2C=CC(CC2)C1C(=O)NCC12CC3CC(CC(C3)C1)C2` (stereo partly drawn) [Example 24, endo-cis-2-(1-S-Methoxycarbonyl-ethylaminocarbonyl)-3-(1-adamantylmethylaminocarbonyl)-bicyclo[2.2.2]oct-5-ene], the Ki at CCKB receptor is 10 µM. Also, on gastrin receptors, the Kb was 1.26 µM.

As for `O=C(NCC12CC3CC(CC(C3)C1)C2)C1C2C=CC(c3ccccc32)C1C(=O)N1CCC[C@H]1C(=O)O` (stereo partly drawn) [Example 26, endo-cis-7-(2-S-carboxy-pyrrolidinocarbonyl)-8-(1-adamantylmethylaminocarbonyl)-5,6-benzo-bicyclo[2.2.2]oct-2-ene], the Ki at CCKB receptor is 3.16 µM. For the same compound, on gastrin receptors, the Kb was 1.26 µM.

For the compound `O=C(NCC12CC3CC(CC(C3)C1)C2)C1C2C=CC(c3ccccc32)C1C(=O)N1CCC[C@H]1C(=O)O` (stereo partly drawn) [Example 27, exo-cis-7-(2-S-carboxy-pyrrolidinocarbonyl)-8-(1-adamantylmethylaminocarbonyl)-5,6-benzo-bicyclo[2.2.2]oct-2-ene], the “CCKB pKi” value at CCKB receptor is listed as 6.2. In addition, on gastrin receptors (60 min), the “Gastrin pKB” value is given as 6.5.

For `O=C(NCC12CC3CC(CC(C3)C1)C2)C1C2C=CC(c3ccccc32)C1C(=O)N1C[C@H](O)C[C@@H]1C(=O)O` (stereo partly drawn) [Example 29, exo-cis-7-(2-R-carboxy-4-R-hydroxy-pyrrolidinocarbonyl)-8-(1-adamantylmethylaminocarbonyl)-5,6-benzo-bicyclo[2.2.2]oct-2-ene], the Ki on CCKB receptor was 2.51 µM. In addition, the Kb on gastrin receptors is 2 µM.

As for `COC(=O)[C@@H]1CCCN1C(=O)C1C2C=CC(c3ccccc32)C1C(=O)NCC12CC3CC(CC(C3)C1)C2` (stereo partly drawn) [Example 30, endo-cis-7-(2-S-methoxycarbonyl-pyrrolidinocarbonyl)-8-(1-adamantylmethylaminocarbonyl)-5,6-benzo-bicyclo[2.2.2]oct-2-ene], the Ki on CCKB receptor was 0.501 µM. The Kb on gastrin receptors was 0.398 µM.

Turning to `O=C(O)c1cc(NC(=O)[C@H](Cc2ccccc2)NC(=O)C2C3C=CC(c4ccccc43)C2C(=O)NCC23CC4CC(CC(C4)C2)C3)cc(C(=O)O)c1` (stereo partly drawn) [Example 60, exo-cis-7-(1S-(3,5-dicarboxyphenylaminocarbonyl)-2-phenyl-ethylaminocarbonyl)-8-(1-adamantylmethylaminocarbonyl)-5,6-benzobicyclo[2.2.2]oct-2-ene], the Ki on CCKB receptor was 0.316 µM. The Kb at gastrin receptors is 0.0501 µM.

(Values after US5674905A, “Bicyclooctane and bicycloheptane derivatives” (James Black Foundation Limited, priority 1992, dated 1997).)
